# Assay results from US6566048B1, “Acetyl-COA-carboxylase from Candida albicans” (Syngenta Limited, priority 1997, dated 2003).
# Tests used:
# C. albicans B2630 = assay: In-vitro antifungal activity, broth-dilution liquid MIC; format: cell-based; settings: Candida albicans, 30° C., 48h, MIC determined visually, read-out: Liquid MIC (μg/ml) for Soraphen A
# Experimental: (§1) Compounds were tested over a concentration range of 1024-0.00098 μg/ml by a broth-dilution method in microtitre plates using doubling dilutions in YPD or YPGal (both containing 500 μg/l d-biotin). Stock solutions of inhibitors were prepared at 51.2 mg/ml in Dimethyl sulphoxide (DMSO) (final assay concentration of DMSO was 2% v/v). Each Yeast culture was added to the well to give a final 10^4 cfu/well. The plates were incubated at 30° C. for 48h and MIC's determined visually.
# S. cerevisiae CLS2-13 = assay: as above; format: cell-based; settings: Saccharomyces cerevisiae, CLS213, 30° C., 48h, MIC determined visually, read-out: Liquid MIC (μg/ml) for Soraphen A
# Experimental: as §1
# S. cerevisiae Mey 134 = assay: as above; format: cell-based; settings: Saccharomyces cerevisiae, MEY134, 30° C., 48h, MIC determined visually, read-out: Liquid MIC (μg/ml) for Soraphen A
# Experimental: as §1
# [1] = test system: S. cerevisiae PNS 117a 5C; assay: as above; format: cell-based; settings: Saccharomyces cerevisiae, PNS117A5C, 30° C., 48h, MIC determined visually, read-out: Liquid MIC (μg/ml) for Soraphen A
# Experimental: as §1
# [2] = test system: S. cerevisiae PNS 117b 6A; assay: as above; format: cell-based; settings: Saccharomyces cerevisiae, PNS117B6A, 30° C., 48h, MIC determined visually, read-out: Liquid MIC (μg/ml) for Soraphen A
# Experimental: as §1
# [3] = test system: S. cerevisiae PNS 120a 6C; assay: as above; format: cell-based; settings: Saccharomyces cerevisiae, PNS120A6C, 30° C., 48h, MIC determined visually, read-out: Liquid MIC (μg/ml) for Soraphen A
# Experimental: as §1
# [4] = test system: S. cerevisiae PNS 120b 1C; assay: as above; format: cell-based; settings: Saccharomyces cerevisiae, PNS120B1C, 30° C., 48h, MIC determined visually, read-out: Liquid MIC (μg/ml) for Soraphen A
# Experimental: as §1
# [5] = target: ACCase preparation from S. cerevisiae CLS2-13 (C. albicans ACC1 gene in Yep24) (Candida albicans, UniProt A0A1D8PRR7); assay: In-vitro ACCase assay ([14C] NaHCO3 incorporation); format: biochemical; settings: 37° C., 5 minutes, read-out: IC50 for Soraphen A (nM) against ACCase preparations
# Experimental: (§2) Cultures of the appropriate yeast strains were grown to the exponential phase of growth (for Saccharomyces and Candida strains respectively). These were then harvested by centrifugation (4400 g, 10 min, 4° C.), washed twice in 700 ml of 50 mM Tris pH7.5 containing 20% w/v gylcerol, resuspending the cell pellet each time. […] The volume of buffer required was dependent on the total packed cell wet weight. (i.e. 1 ml buffer added per 6 gm of packed wet cell pellet).
# (§3) The cell paste was homogenised using a pre-cooled Bead-Beater (Biospec Products, Bartlesville, Okla. 74005) with 4×10 second Bursts, allowing 20 second intervals on ice. The preparation was then centrifuged at 31,180 g for 30 minutes. After centrifugation the supernatant was immediately decanted into a container, then aliquoted before snap freezing in liquid nitrogen.
# [6] = target: ACCase preparation from S. cerevisiae PNS 117a 5C (Candida albicans, UniProt A0A1D8PRR7); assay: In-vitro ACCase assay ([14C] NaHCO3 incorporation); format: biochemical; settings: 37° C., 5 minutes, read-out: IC50 for Soraphen A (nM) against ACCase preparations
# Experimental: as §2, §3
# [7] = target: ACCase preparation from S. cerevisiae PNS 117b 6A (Candida albicans, UniProt A0A1D8PRR7); assay: In-vitro ACCase assay ([14C] NaHCO3 incorporation); format: biochemical, C. albicans; settings: 37° C., 5 minutes, read-out: IC50 for Soraphen A (nM) against ACCase preparations
# Experimental: as §2, §3
# C. albicans ACC1 = settings: isolated fully functional C. albicans ACC1
# Experimental: The assay was conducted in 96 well, flat bottomed polystyrene microtitre plates. All test and control samples were tested in duplicate in this assay.
# 100 μl of the ACCase enzyme preparation (in 50 mM Tris pH7.5 containing 1 mM EGTA, 1 mM EDTA (disodium salt), 1 mM DTT, 0.25 mM Pefabloc hydrochloride, 1 μM Leupeptin hemisulphate, 1 μM Pepstatin A, 0.5 μM Trypsin inhibitor, and 20% w/v glycerol) was added to each well of the microtitre plate. Each well contained either a 3 μl test sample made up in DMSO or 3 μl DMSO alone (NB. Final DMSO concentrations in the assay were 1.48% v/v). The microtitre plates were placed in a water bath maintained at 37° C. 10 μl of [^14C] NaHCO3 containing 9.25 kBq in 378 mM NaHCO3 was then added to each well. […]
# After the addition of the stop reagent the plates were left open in the water bath for a further 30 minutes to allow the ^14CO2 to escape. […] Radioactivity in the samples was then determined by scintillation counting (Wallac WinSpectral 1414, Turku, Finland).
# IC50's were calculated from the data using non-linear regression techniques available in the ORIGIN software package (Microcal Software Inc., Massachusetts, USA).
# Sequence of ACCase preparation from S. cerevisiae PNS 117a 5C (A0A1D8PRR7 entry or part of it): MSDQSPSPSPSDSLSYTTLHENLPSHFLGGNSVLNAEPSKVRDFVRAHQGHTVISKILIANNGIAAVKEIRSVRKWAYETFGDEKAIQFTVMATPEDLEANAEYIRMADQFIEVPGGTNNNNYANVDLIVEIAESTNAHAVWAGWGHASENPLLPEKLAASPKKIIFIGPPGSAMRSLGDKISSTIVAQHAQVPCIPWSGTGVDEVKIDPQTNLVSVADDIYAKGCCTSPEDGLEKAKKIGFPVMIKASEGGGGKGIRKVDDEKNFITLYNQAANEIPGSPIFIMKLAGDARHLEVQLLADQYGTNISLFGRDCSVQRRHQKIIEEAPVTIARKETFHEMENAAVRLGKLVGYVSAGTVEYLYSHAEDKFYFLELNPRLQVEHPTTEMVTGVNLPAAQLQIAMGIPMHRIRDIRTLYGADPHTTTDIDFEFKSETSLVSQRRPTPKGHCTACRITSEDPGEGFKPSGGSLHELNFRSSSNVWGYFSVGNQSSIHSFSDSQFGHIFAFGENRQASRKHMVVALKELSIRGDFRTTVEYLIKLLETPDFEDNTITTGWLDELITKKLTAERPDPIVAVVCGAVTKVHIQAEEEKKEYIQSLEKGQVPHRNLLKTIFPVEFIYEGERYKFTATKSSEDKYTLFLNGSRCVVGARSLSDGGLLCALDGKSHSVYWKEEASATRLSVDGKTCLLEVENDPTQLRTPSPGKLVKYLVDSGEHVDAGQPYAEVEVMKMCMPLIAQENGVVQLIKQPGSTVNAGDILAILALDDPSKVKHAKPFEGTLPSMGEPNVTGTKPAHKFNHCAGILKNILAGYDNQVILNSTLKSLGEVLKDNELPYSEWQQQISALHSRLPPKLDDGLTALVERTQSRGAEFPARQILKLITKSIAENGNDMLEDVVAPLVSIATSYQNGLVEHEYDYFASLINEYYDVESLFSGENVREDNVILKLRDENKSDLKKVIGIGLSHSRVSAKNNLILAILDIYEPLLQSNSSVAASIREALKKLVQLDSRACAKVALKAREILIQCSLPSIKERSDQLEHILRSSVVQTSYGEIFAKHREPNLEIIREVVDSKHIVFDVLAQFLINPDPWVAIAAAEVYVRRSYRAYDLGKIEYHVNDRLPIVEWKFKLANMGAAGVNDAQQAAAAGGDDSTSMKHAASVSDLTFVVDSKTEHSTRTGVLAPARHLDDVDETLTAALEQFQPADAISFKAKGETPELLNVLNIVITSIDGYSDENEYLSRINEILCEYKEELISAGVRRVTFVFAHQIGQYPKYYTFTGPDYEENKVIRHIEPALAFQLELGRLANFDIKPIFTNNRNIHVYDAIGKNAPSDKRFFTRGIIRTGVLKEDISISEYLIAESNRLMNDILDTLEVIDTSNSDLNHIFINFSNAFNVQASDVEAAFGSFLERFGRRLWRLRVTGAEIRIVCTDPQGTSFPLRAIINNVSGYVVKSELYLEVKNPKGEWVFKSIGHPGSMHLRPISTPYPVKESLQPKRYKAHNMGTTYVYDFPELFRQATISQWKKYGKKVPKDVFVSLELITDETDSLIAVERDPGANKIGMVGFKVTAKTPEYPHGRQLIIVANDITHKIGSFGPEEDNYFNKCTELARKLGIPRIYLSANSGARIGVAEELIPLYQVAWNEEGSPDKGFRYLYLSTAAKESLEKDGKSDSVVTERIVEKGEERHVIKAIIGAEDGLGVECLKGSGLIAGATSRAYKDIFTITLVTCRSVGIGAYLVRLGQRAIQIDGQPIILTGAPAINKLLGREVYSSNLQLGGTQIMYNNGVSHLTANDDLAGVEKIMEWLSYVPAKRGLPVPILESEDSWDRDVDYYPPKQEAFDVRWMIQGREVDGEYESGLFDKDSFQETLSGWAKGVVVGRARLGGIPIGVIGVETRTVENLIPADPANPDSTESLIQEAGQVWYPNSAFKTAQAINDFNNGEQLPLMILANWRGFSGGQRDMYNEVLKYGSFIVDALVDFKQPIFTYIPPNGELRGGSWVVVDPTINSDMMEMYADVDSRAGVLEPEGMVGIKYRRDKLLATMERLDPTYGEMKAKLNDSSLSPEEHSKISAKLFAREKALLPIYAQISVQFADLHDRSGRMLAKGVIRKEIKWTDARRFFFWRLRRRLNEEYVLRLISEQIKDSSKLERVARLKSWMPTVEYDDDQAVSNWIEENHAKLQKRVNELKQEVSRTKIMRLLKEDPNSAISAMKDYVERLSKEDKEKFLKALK
# Sequence of ACCase preparation from S. cerevisiae CLS2-13 (C. albicans ACC1 gene in Yep24) (A0A1D8PRR7 entry or part of it): as above
smiles,measurement,setting,value
CO[C@H]1CCCC[C@@H](c2ccccc2)OC(=O)[C@@H](C)[C@@]2(O)O[C@H]([C@@H](C)[C@H](O)[C@H]2OC)[C@@H](C)/C=C/[C@H]1OC [Soraphen A],MIC,C. albicans B2630,0.003 µg/mL
same,MIC,S. cerevisiae CLS2-13,2 µg/mL
same,MIC,S. cerevisiae Mey 134,8 µg/mL
same,MIC,[1],2 µg/mL
same,MIC,[2],4 µg/mL
same,MIC,[3],0.5 µg/mL
same,MIC,[4],0.125 µg/mL
same,IC50,[5],2.5 nM
same,IC50,[6],17.5 nM
same,IC50,[7],13.1 nM
same,inhibition by SoraphenA,C. albicans ACC1,100%
